# According to patent US11219650B2, “Agent for preventing or treating small intestinal injury induced by specific NSAID and PPI” (priority 2018, dated 2022):
# What was measured:
# [1] = test system: small intestinal injury; details: Non-Patent Literature 1 (Wallace et al., Gastroenterology 2011); cited from earlier work
# [2] = test system: small intestinal injury; details: rat, in vivo
# Experimental: (§1) The animals were allowed to free access to a solid diet (CE-2, CLEA Japan, Inc.) and tap water.
# (§2) At the start of the experiments, the blood was collected from the tail vein with hematocrit capillary tubes (Thermo Fisher Scientific K.K.) to measure hematocrit values. […] After grouping, the body weight of the animals was measured for nine days, and one of the PPIs (10 mg/kg) was intraperitoneally administered twice a day. For the normal group and the NSAID alone administration groups, vehicle was administered instead of the PPIs. From day 6 of PPI administration, one of the NSAIDs (10 mg/kg) was administered by oral gavage twice a day. For the normal group, vehicle was administered instead of the NSAIDs. For the bifidobacteria administration groups, one strain of the bacteria (1×10^9 cfu (colony forming unit)/animal) was further administered by oral gavage once a day. For the other groups, physiological saline was administered instead of the bifidobacteria. On the final day of the experiments, the hematocrit values were measured again, and the difference between the start and the end of the experiments was calculated and expressed as the rate of change of the hematocrit values. In aspirin administration experiments, the animals were fed with a high-fructose diet (EPS EKISHIN Co., Ltd) from the starting day of PPI administration.
# (§3) Bifidobacteria administration was not performed. […]
# [3] = test system: small intestinal injury; assay: Comparative Example 1: degree of small intestinal injury induction by sulindac and omeprazole, rate of change of hematocrit values; details: rats; sulindac as NSAID + omeprazole as PPI; no bifidobacteria; FIG. 10
# Experimental: as §1, §2, §3
# [4] = test system: small intestinal injury induced by NSAID and PPI; assay: Test 1: inhibitory effects on NSAID and PPI induced small intestinal injury, rate of change of hematocrit values; assay type: in vivo, Wister male rats; details: rats, bacteria 1×10^9 cfu/animal oral once a day
# Experimental: Frozen stocks of the following bacterial strains were statically cultured in GAM broth at 37° C. for 24 hours: the Bifidobacterium bifidum G9-1 strain (B. bifidum G9-1) (Accession No. NITE BP-817), the Bifidobacterium longum reference strain JCM (registered trademark) 1217^T (B. longum JCM 1217) (purchased from Japan Collection of Microorganisms (JCM), RIKEN BioResource Research Center), and the Bifidobacterium infantis reference strain JCM 1222T (B. infantis JCM 1222) (purchased from JCM). Each of the bacterial liquid cultures was inoculated into fresh GAM broth at a ratio (by volume) of liquid culture to GAM broth of 1:100, and statically cultured at 37° C. for 24 hours. […]
# Small intestinal injury was induced by a combination of (S)-(+)-2-(6-methoxy-2-naphthyl)propionic acid (naproxen, Tokyo Chemical Industry Co., Ltd., dissolved in a 5% NaHCO3 solution; also called NAP) and omeprazole (omz) or by a combination of ibuprofen (Ibu) and omeprazole (omz). […] That is, the effect of B. bifidum on recovery from small intestinal injury induced by ibuprofen and omeprazole when compared with the effect of B. bifidum on recovery from small intestinal injury induced by naproxen and omeprazole was calculated by the following formula, taking the latter effect as 1.
compound,measurement,setting,value
"COc1ccc2cc([C@H](C)C(=O)O)ccc2c1 [Naproxen, (S)-(+)-2-(6-methoxy-2-naphthyl)propionic acid]",induction of small intestinal injury by naproxen in combination with omeprazole,[1],induce small intestinal injury
CC1=C(CC(=O)O)c2cc(F)ccc2/C1=C\c1ccc([S+](C)[O-])cc1 (centres unmarked) [sulindac],induction of small intestinal injury by combination of sulindac and omeprazole,[2],does not induce small intestinal injury
same,reduction of the hematocrit values induced by sulindac in combination with omeprazole,[3],did not induce reduction of the hematocrit values
Bifidobacterium longum,inhibitory effect on small intestinal injury (hematocrit reduction) induced by ibuprofen and lansoprazole,"[4]; ibuprofen 10 mg/kg oral + lansoprazole 10 mg/kg i.p. twice a day, FIG. 7",higher inhibitory effect
same,inhibitory effect on small intestinal injury (hematocrit reduction) induced by ibuprofen and omeprazole,"[4]; ibuprofen 10 mg/kg oral + omeprazole 10 mg/kg i.p. twice a day, FIG. 4",higher inhibitory effect
